System: ovalbumin (OA) induced bronchial hyperresponsiveness
Experiment: Pulmonary function test, OA induced bronchial hyperresponsiveness in BNR
Assay type: in vivo, brown Norway rats (BNR)
From the text: The requirements for animal models include both specificity and the capacity for developing pulmonary histopathological lesions that are similar to those found in the corresponding human disorders. In view of the above considerations, three kinds of animal models were adopted for the experiments used in developing this invention. Two were invasive method and one was non-invasive method. The first and second invasive models were BNR and guinea pig asthma model induced by ovalbumin (OA). Twenty four either BNR (weight ranging from 250˜350 g) or guinea pig (380˜500 g) were divided into three groups. Each group consisted of 8 weight-matched male animals. Both group I and group II BNR were put into a closed chamber (30×30×16 cm plastic box) with two small holes, one serving as a gas inlet and the other as a gas outlet. Two mL of 1% OA was aerosolized by nebulizer and delivered continuously into the closed chamber with a gas delivery flow of 8 l/min. The animal was exposed to OA in the chamber for 10 minutes.
A second sensitization was performed 7 days later using the same procedure. Another 7 days later, a provocation test was performed. To prevent anaphylaxis and possible death, the animals were pretreated with pyrinamine (10 mg/kg) intraperitoneally 30 minutes before the test. For provocation, the BNR inhaled 3 mL of 4% aerosolized OA by nebulizer for 10 minutes in a closed chamber, using the same procedure as for sensitization. Group I BNR or guinea pig were given Cordyceps sinensis active fraction F-4 4 mg/kg intraperitoneally 30 minutes before OA inhalation provocation. Group II control animals were treated in the same way as […], except that they were sensitized and challenged by breathing aerosolized saline instead of OA and without Cordyceps sinensis pretreatment.
In the Cordyceps sinensis treatment study, the protocol is similar to pretreatment except F-4 is administed after OA inhalation provocation.
For the lung function and acetylcholine provocation portion of the study, all animals were anesthetized with sodium pentobarbitone (50 mg/kg intraperitoneally). Jugular vein cannulation (PE-10 polyethylene tube filled with heparin, 1000 iu/mL in normal saline) and tracheostomy were performed. Lung function test was done 24 hours after the OA provocation test. The BNRs or pignea pigs were put in a body box (Model 6 Body Box, Buxco, Troy, N.Y., USA) in a supine position while the mice were put in a body box for mice (Anesthetized Body Box for Mice, Buxco, Troy, N.Y., USA). Gallamine triethiodide (4 mg/kg) was intravenously injected to induce paralysis and inhibit spontaneous breathing. A small animal ventilator set at a tidal volume of 6 mL/kg and a respiratory rate of 60 times/minute for the BNRs, 120 times/minute for the mice was used to ventilate the small animals. All animals were stable without spontaneous breathing 5 minutes after gallamine was given. Pulmonary function tests (PET) as described below were measured at baseline. Therefore, 25, 50, 75 and 100 μg/kg of acetylcholine (Ach) were given intravenously at 30 minute intervals. PETs were done 5 seconds after each dose of acetylcholine. Before each successive dose of Ach, the flow volume loop returned to baseline.
The airway opening pressure (PaO) was measured by a Gould pressure transducer at the tracheotomy. Respiratory flow was measured by a DP-45-14 differential pressure transducer. When tidal breathing was examined, 3-layer 325-mesh wire screen was used to measure the pressure difference. When a maximal forced expiratory maneuver (MFEM) was performed, a 6-layer 325-mesh wire screen was used to measure the pressure difference.
For the MFEM, the lungs were inflated to total lung capacity 9TLC, lung volume at PaO=35 cm H2O) 3 times; the inflation was regulated by a solenoid valve. At peak volume during the third inflation, the inflation valve was shut off and another solenoid valve was opened immediately for deflation. […]

[1] = baseline, 4 mg/Kg intraperitoneally 30 minutes before OA inhalation provocation, mean±SD
[2] = pretreated before OA inhalation provocation (group I) vs OA-treated (group II), Ach doses higher than 25 μg/kg

CC(C)[C@@H](C)C=C[C@@H](C)[C@H]1CC[C@H]2C3=C[C@@H](O)[C@@]4(O)C[C@@H](O)CC[C@]4(C)[C@H]3CC[C@]12C [F8, (24R)-ergosta-7,22-diene-3β, 5α, 6β,-triol]
Cdyn (total dynamic lung compliance) [1]: 0.53 ± 0.05 mL/cm H2O
MFEF 25% [1]: 35.3 ± 4.5 mL/s
MFEF 50% [1]: 75.7 ± 4.6 mL/s
MFEF 75% [1]: 101.5 ± 4.9 mL/s
PaO (airway opening pressure at tidal breathing) [1]: 4.3 ± 0.6 cmH2O
Peak flow [1]: 105.6 ± 4.7 mL/s
Total lung capacity [1]: 15.4 ± 1.5 mL
percentage of baseline MFEF 25% TLC, Ach dose response [2]: group II was significantly lower then group I
percentage of baseline MFEF 50% TLC, Ach dose response [2]: group II was significantly lower then group I
PD20 Ach (dose of Ach producing a 20% drop) for MFEF 50% and MFEF 25% (treatment study (administered after OA inhalation provocation), group I vs OA-treated group II): significantly (p<0.001) lower in group II than in the other 2 groups

From US20030095982A1, “Fraction of Cordyceps sinensis and method of isolation thereof” (priority 2001, published 2003)
